Test results reported in ChEMBL document CHEMBL2157925, “Design, synthesis, and bioevaluation of benzamides: novel acetylcholinesterase inhibitors with multi-functions on butylcholinesterase, Aβ aggregation, and β-secretase” (Bioorg Med Chem, 2012).

Key:
Acetylcholinesterase = Acetylcholinesterase (Homo sapiens, UniProt P22303)
Description: Inhibition of human recombinant AChE using acetylthiocholine as substrate

Cholinesterase = Cholinesterase (Homo sapiens, UniProt P06276)
Description: Inhibition of human recombinant BChE using acetylthiocholine as substrate

Beta-secretase 1 = Beta-secretase 1 (Homo sapiens, UniProt P56817)
Chain of Beta-secretase 1 (P56817 whole entry): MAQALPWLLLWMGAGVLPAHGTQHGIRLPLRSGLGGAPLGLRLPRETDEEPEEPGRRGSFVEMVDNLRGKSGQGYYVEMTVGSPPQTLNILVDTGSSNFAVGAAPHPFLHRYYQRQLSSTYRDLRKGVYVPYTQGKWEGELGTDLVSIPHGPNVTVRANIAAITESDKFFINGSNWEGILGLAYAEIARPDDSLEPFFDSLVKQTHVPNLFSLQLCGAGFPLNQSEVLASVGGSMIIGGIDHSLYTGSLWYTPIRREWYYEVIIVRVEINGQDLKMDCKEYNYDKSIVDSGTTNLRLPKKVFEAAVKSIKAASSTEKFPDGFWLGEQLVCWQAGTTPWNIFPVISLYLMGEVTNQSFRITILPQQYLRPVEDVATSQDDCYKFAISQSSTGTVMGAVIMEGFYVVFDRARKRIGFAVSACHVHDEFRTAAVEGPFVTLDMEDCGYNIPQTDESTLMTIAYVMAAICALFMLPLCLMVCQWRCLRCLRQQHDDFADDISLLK

Chain of Cholinesterase (P06276 whole entry): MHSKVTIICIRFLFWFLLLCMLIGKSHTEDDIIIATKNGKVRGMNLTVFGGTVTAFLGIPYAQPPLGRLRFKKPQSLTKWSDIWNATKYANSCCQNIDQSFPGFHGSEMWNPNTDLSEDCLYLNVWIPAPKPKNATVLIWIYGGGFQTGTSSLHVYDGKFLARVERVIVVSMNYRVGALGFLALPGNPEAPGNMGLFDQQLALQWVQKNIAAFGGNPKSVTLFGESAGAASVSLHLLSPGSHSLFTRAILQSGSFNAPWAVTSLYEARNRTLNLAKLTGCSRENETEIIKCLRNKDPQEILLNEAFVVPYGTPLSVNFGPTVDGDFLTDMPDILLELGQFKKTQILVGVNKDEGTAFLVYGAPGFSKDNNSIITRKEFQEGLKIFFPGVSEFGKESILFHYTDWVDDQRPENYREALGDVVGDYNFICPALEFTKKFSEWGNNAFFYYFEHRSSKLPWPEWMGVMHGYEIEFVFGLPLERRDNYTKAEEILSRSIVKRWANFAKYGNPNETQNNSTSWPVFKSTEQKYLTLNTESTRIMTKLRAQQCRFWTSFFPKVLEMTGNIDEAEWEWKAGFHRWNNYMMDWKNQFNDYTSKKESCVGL
Chain of Acetylcholinesterase (P22303 whole entry): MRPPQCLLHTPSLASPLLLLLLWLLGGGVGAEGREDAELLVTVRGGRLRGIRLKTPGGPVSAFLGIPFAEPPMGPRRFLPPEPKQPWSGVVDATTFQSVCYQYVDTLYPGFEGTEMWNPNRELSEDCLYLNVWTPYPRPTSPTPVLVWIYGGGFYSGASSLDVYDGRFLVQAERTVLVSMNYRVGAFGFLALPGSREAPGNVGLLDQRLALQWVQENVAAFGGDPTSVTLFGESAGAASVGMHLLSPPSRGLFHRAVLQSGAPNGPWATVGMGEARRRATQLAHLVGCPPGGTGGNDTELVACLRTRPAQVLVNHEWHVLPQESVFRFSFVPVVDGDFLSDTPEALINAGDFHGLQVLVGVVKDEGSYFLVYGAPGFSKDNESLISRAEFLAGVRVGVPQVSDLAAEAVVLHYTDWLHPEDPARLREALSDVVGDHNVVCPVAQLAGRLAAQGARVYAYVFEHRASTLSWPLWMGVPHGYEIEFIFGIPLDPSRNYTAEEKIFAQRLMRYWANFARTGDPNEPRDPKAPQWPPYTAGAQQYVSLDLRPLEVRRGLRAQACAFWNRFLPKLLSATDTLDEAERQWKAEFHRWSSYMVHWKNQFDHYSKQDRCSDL

O=C(NCCc1c[nH]c2ccccc12)c1ccc(OCCCCn2c3ccccc3c3ccccc32)cc1
Ki (Acetylcholinesterase): 1440 nM

O=C(NCCc1c[nH]c2ccccc12)c1ccc(OCCCCn2ccc3ccccc32)cc1
Ki (Acetylcholinesterase): > 10000 nM

O=C(NCCc1c[nH]c2ccccc12)c1ccc(OCCCCOc2cccc3[nH]c4ccccc4c23)cc1
Ki (Acetylcholinesterase): > 10000 nM

O=C(NCCc1c[nH]c2ccccc12)c1ccc(OCCCCOc2cccc(C(=O)c3ccccc3)c2)cc1
Ki (Acetylcholinesterase): > 10000 nM

O=C(NCCc1c[nH]c2ccccc12)c1ccc(OCCCCOc2ccc(C(=O)c3ccccc3)cc2)cc1
Ki (Acetylcholinesterase): > 10000 nM

O=C(NCCc1c[nH]c2ccccc12)c1ccc(OCCCCOc2ccc3c(c2)C(=O)c2ccccc2-3)cc1
Ki (Acetylcholinesterase): > 10000 nM

CN(C)c1cc[n+](CCCCOc2ccc(C(=O)NCCc3c[nH]c4ccccc34)cc2)cc1
Ki (Acetylcholinesterase): 198 nM
Ki (Cholinesterase): 2360 nM

O=C(NCCc1c[nH]c2ccccc12)c1ccc(OCCCC[n+]2cccc3ccccc32)cc1
Ki (Acetylcholinesterase): 124 nM
Ki (Cholinesterase): 97 nM

CC(=O)c1ccccc1NC(=O)c1ccc(OCCCC[n+]2cccc3ccccc32)cc1
Ki (Acetylcholinesterase): 53 nM
Ki (Cholinesterase): 166 nM

CC(=O)c1ccccc1NC(=O)c1ccc(OCCCC[n+]2ccc3ccccc3c2)cc1
Ki (Acetylcholinesterase): 45.8 nM
Ki (Cholinesterase): 56 nM

CC(=O)c1ccccc1NC(=O)c1ccc(OCCCCC[n+]2ccc3ccccc3c2)cc1
Ki (Acetylcholinesterase): 44.7 nM
Ki (Cholinesterase): 82 nM
IC50 (Beta-secretase 1): > 100000 nM

CC(=O)c1ccccc1NC(=O)c1ccc(OCCCCCC[n+]2ccc3ccccc3c2)cc1
Ki (Acetylcholinesterase): 9.4 nM
Ki (Cholinesterase): 99 nM
IC50 (Beta-secretase 1): > 100000 nM

CC(=O)c1ccccc1NC(=O)c1ccc(OCCCCC[n+]2cccc3ccccc32)cc1
Ki (Acetylcholinesterase): 6.47 nM
Ki (Cholinesterase): 55 nM
IC50 (Beta-secretase 1): 85000 nM

CC(=O)c1ccccc1NC(=O)c1ccc(OCCCCC[n+]2ccccc2)cc1
Ki (Acetylcholinesterase): 81 nM
Ki (Cholinesterase): 93 nM
IC50 (Beta-secretase 1): 310 nM

CC(=O)c1ccccc1NC(=O)c1ccc(OCCCCCC[n+]2ccccc2)cc1
Ki (Acetylcholinesterase): 47 nM
Ki (Cholinesterase): 66 nM
